Reference: patent US11466010B2, “Toll-like receptor 8 (TLR8) specific antagonists and methods of making and uses thereof” (The Regents of the University of Colorado, a body corporate, priority 2017, dated 2022)

What was measured:
[1] = tested on: TNF-α production in PBMCs from RA patients; test: TNF-α level in PBMCs harvested from RA patients; format: cell-based, human; conditions: PBMCs from RA patients and one AOSD patient; dose-dependent
[2] = tested on: TNF-α production in PBMCs from an AOSD patient; test: TNF-α level in PBMCs harvested from an AOSD patient; format: cell-based, human
Procedure: But there is a lack of appropriate rodent models because TLR8 is not functional in either mice or rats. Therefore, the TLR8 inhibitors of this disclosure were tested in human specimens harvested from patients with osteoarthritis (OA), rheumatoid arthritis (RA), and adult onset-Still's disease (AOSD). It is well established that TNF-α and IL-1β are key cytokines in the process of chronic joint inflammation in cartilage. Therefore, synovial cells were isolated from synovial tissue of patients who underwent joint replacement surgery due to severe OA. Previous studies have indicated these pathological tissues express both TLR7 and TLR8 with elevated production of various cytokines, contributing to extensive articular destruction and functional decline.

[3] = biological target: T1, TLR7 (Homo sapiens, UniProt Q9NYK1); test: SEAP assay in HEK-Blue TLR7 cells activated by R848; format: cell-based; conditions: below approx. micromolar concentration
T1 construct: host or cells: HEK-Blue TLR7 cells
T1 sequence (Q9NYK1 27-1049): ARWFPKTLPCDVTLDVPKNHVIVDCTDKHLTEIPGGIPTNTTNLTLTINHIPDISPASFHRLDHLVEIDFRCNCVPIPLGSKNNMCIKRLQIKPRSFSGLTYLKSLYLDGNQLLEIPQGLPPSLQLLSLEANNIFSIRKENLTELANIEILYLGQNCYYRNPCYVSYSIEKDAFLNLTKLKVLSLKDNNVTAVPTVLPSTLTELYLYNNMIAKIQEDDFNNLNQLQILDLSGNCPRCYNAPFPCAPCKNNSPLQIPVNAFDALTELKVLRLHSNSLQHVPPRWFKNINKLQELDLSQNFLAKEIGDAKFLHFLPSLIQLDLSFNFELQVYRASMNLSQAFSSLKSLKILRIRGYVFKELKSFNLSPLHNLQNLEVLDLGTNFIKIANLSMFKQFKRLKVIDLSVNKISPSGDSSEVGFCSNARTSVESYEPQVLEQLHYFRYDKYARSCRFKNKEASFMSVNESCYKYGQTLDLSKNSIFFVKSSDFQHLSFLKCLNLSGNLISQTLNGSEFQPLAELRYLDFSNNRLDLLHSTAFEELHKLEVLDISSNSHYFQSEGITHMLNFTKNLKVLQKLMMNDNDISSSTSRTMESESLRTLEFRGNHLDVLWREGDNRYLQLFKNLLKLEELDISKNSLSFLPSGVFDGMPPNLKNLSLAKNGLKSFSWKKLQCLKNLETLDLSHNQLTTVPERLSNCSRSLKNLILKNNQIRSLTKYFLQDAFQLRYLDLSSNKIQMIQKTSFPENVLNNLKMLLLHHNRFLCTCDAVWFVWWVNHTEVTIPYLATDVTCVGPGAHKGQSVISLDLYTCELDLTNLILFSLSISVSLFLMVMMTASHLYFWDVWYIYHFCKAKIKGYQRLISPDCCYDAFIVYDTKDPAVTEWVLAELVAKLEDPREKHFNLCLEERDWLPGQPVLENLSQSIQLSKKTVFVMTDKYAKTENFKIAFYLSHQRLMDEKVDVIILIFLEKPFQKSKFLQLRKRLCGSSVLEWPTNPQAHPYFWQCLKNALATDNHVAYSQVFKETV
Procedure: TLR selectivity assay: The selectivity of sample compound was tested using SEAP reporter assay in HEK-Blue overexpressing various TLRs. Plates were set up in same manner as described in SEAP assay above.

[4] = biological target: T2, TLR8 (Homo sapiens, UniProt Q9NR97); test: Gel filtration chromatography of TLR8 dimerization; format: binding; conditions: diluted TLR8, dose-dependent
T2 construct: hTLR8, residues 27-827; made in house
T2 sequence (Q9NR97 27-827): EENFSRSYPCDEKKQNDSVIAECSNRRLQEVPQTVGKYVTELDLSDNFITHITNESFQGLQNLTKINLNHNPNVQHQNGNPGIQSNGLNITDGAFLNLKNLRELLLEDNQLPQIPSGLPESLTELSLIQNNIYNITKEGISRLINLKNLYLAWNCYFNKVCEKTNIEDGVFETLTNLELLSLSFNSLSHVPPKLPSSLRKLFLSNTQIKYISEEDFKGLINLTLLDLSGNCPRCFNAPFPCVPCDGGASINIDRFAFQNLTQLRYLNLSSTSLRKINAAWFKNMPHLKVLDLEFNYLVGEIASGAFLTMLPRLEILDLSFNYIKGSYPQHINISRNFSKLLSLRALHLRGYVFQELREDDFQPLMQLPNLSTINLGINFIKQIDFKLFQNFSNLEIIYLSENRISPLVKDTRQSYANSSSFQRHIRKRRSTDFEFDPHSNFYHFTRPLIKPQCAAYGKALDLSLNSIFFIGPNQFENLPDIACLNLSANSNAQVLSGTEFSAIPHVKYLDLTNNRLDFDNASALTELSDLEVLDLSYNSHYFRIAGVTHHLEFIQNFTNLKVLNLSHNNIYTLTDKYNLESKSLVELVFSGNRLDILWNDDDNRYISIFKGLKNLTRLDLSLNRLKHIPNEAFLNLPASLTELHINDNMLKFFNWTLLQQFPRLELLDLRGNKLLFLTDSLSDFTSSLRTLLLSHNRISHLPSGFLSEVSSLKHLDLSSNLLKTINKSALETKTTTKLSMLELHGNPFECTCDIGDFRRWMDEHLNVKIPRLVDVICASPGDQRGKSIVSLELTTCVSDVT
Procedure: Gel filtration chromatography with diluted TLR8 proteins, in which TLR8 exists as a monomer, was conducted to determine the dimerization state of TLR8 in the absence and presence of different ligands (FIGS. 10A and 10B).

Question: For `COc1ccc2c(-c3ccc(O)c(C)c3)ccnc2c1` [Compound 11a, 2-Methyl-4-(7-methoxyl-4-quinolinyl)-phenol], which “TNF-α level in patient PBMCs” value [1] is on record?
Answer: significantly suppressed

Question: And the “TNF-α level in PBMCs from an AOSD patient” value [2]?
Answer: dose-dependent suppression

Question: What about the “effect on TLR7” value [3] of the same compound?
Answer: not affected

Question: What does the source list for `Cc1cc(-c2ccnc3cc(O)ccc23)ccc1O` [Compound 11b, 2-Methyl-4-(7-hydroxyl-4-quinolinyl)-phenol]?
Answer: retention volume of TLR8 (dimer stabilization in solution) [4]: smaller retention volume; effect on TLR7 [3]: not affected
